# Measurements published in patent publication US5395838A, “6-substituted quinazolines processing anti-tumor activity” (Imperial Chemical Industries PLC, priority 1988, dated 1995).
# Read-outs that look alike come from different tables or passages of the source.
# What was measured:
# thymidylate synthase = target: T1, thymidylate synthase (Mus musculus, UniProt P07607); test: Test (a): in vitro inhibition of the enzyme thymidylate synthase (partially purified from L1210 mouse leukaemia cells); assay type: biochemical
# T1 construct: obtained in partially purified form from L1210 mouse leukaemia cells; endogenous in cells; host or cells: L1210 mouse leukaemia cells (enzyme partially purified)
# Excerpt: (a) An in vitro assay which determines the ability of a test compound to inhibit the enzyme thymidylate synthase.
# L1210 = test: Test (b): inhibition of the growth of the leukaemia cell line L1210 in cell culture; assay type: cell-based; settings: Mus musculus, read-out: IC50 against the L1210 cell line [Test (b)]
# Excerpt: (b) An assay which determines the ability of a test compound to inhibit the growth of the leukaemia cell line L1210 in cell culture. The test is similar to that described in UK Patent Specification No. 2065653B;
# [1] = particularly in relation to the liver and kidney; cited from earlier work
# [2] = system: human breast, ovarian and liver cancer; settings: clinical trials; cited from earlier work
# T1 sequence (P07607 whole entry): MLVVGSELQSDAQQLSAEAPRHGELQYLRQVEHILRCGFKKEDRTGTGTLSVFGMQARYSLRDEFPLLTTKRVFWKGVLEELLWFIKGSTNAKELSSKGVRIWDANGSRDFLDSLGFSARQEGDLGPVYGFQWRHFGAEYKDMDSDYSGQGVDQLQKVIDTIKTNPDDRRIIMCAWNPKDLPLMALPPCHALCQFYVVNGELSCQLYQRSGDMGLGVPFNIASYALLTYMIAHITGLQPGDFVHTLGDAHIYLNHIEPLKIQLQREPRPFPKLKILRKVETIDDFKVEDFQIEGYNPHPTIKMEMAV
"IC50 (thymidylate synthase; enzyme from L1210 mouse leukaemia cells, read-out: IC50 against thymidylate synthase [Test (a)]) [µM]",SMILES,IC50 (L1210) [µM],IC50 (thymidylate synthase) [µM],symptoms of toxicity in humans [1],"activity against human breast, ovarian and liver cancer [2]"
0.5,"C#CCN(Cc1ccc2nc(C)nc(O)c2c1)c1ccc(C(=O)NCc2ccccn2)cc1 [p-[N-(3,4-dihydro-2-methyl-4-oxoquinazolin-6-ylmethyl)-N-(prop-2-ynyl)amino]-N-(2-pyridylmethyl)benzamide]",3.9,–,–,–
–,"C#CCN(Cc1ccc2nc(C)[nH]c(=O)c2c1)c1ccc(C(=O)NCc2ccccc2[N+](=O)[O-])cc1 [p-[N-(3,4-dihydro-2-methyl-4-oxoquinazolin-6-ylmethyl)-N-(prop-2-ynyl)amino]-N-(2-nitrobenzyl)benzamide]",1.8,0.05,–,–
–,C#CCN(Cc1ccc2nc(N)[nH]c(=O)c2c1)c1ccc(C(=O)N[C@@H](CCC(=O)O)C(=O)O)cc1 [CB3717],–,–,"shows symptoms of toxicity in humans, particularly in relation to the liver and kidney","promising activity against human breast, ovarian and liver cancer"
